From patent JP2011219500A, “ムスカリンレセプターアンタゴニストとしての有用なビフェニル化合物” (Theravance Inc, priority 2011, dated 2011) come the findings set out here.

Assay [1] addresses T1, M3 muscarinic receptor subtype (M3ムスカリン性レセプターサブタイプ) (Homo sapiens, UniProt P20309).
T1 construct: expressed in transfected cells; membrane preparation
Put plainly: Assay 1: radioligand binding assay ([3H]-NMS displacement).

The target of a further assay is T2, hM3 receptor (hM3レセプター) (Homo sapiens, UniProt P20309).
T2 construct: expressed in transfected cells
Put plainly: Assay 2C: blockade of agonist-mediated calcium release via FLIPR assay. The class given is cell-based.

The subject of assay [2] is ACh-induced bronchoconstriction (ACh誘導性気管支収縮). Put plainly: Assay 3: duration of bronchoprotection in guinea pig model of acetylcholine-induced bronchoconstriction. In kind it is in vivo. Particulars: inhalation, 1.5 h post-dose.

Usually Ki stands for a dissociation constant, usually derived from enzyme kinetics or from competition with a known ligand.

Like-named read-outs stand apart in the source and are kept apart here. Where only a bound is given, the exact number is not on record here.

T1 sequence (P20309 whole entry): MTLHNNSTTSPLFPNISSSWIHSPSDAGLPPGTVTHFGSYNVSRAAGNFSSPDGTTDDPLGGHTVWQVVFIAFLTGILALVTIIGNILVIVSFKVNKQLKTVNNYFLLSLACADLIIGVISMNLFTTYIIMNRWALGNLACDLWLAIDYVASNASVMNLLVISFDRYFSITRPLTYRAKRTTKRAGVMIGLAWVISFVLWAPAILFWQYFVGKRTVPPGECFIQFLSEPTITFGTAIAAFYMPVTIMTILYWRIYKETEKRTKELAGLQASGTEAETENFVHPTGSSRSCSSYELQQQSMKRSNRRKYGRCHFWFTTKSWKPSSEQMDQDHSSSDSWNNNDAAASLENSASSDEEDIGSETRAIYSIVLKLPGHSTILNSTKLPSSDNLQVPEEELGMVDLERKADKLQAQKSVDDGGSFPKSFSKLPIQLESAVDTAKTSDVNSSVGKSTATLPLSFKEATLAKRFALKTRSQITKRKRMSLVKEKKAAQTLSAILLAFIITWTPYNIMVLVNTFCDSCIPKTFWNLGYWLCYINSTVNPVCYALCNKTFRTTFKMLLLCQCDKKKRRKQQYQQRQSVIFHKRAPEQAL
T2 sequence (P20309 whole entry): as above

On to `CN(CCN1CCC(OC(=O)Nc2ccccc2-c2ccccc2)CC1)C(=O)c1ccc(CN2CCC(C(N)=O)CC2)cc1` [実施例1, ビフェニル−2−イルカルバミン酸 1−(2−{[4−(4−カルバモイルピペリジン−1−イルメチル)ベンゾイル]メチルアミノ}エチル)ピペリジン−4−イルエステル], for which the Ki (in assay [1]; at hM3 receptor (hM3レセプター)) was under 5 nM in each case. In assay [2], the “PD2(50)” value is under 200 µg/mL.

On to `CCN(CCN1CCC(OC(=O)Nc2ccccc2-c2ccccc2)CC1)C(=O)c1ccc(CN2CCC(C(N)=O)CC2)cc1` [実施例2, ビフェニル−2−イルカルバミン酸 1−(2−{[4−(4−カルバモイルピペリジン−1−イルメチル)−ベンゾイル]エチルアミノ}エチル)ピペリジン−4−イルエステル], for which the Ki in assay [1] (M3 subtype, [3H]-NMS displacement, CHO cell membranes, printed as less than about, read-out: Ki) is under 5 nM.
